Values of other authors as cited in US20220287347A1, “PEPTIDES FOR TREATING MUSCLE ATROPHY” (NURITAS LIMITED, priority 2019, published 2022).

How the values were obtained:
[1] = binding to lipoproteins

Row | Structure (SMILES) | half-life in humans | fraction unbound [1]
1 | C[C@@H](O)[C@@H]1NC(=O)[C@H](CCCCN)NC(=O)[C@@H](Cc2c[nH]c3ccccc23)NC(=O)[C@H](Cc2ccccc2)NC(=O)[C@@H](NC(=O)[C@H](N)Cc2ccccc2)CSSC[C@@H](C(=O)N[C@H](CO)[C@@H](C)O)NC1=O [octreotide] | about 100 min | 0.65
2 | NC(=O)CC[C@@H]1NC(=O)[C@H](Cc2ccccc2)NC(=O)[C@H](Cc2ccc(O)cc2)NC(=O)[C@@H](N)CSSC[C@@H](C(=O)N2CCC[C@H]2C(=O)N[C@@H](CCCN=C(N)N)C(=O)NCC(N)=O)NC(=O)[C@H](CC(N)=O)NC1=O [vasopressin] | 10 to 35 min | –
